Data from patent publication US5180712A, “Petide antidementia and nootropic agents” (Fujirebio Kabushiki Kaisha, priority 1988, dated 1993).
Where a SMILES comes first, the peptide text is derived from it. Bridges are numbered along the chain shown (N, C = ends). Roman numbers before positions name the chains, in order. [ ]: non-standard residue; d: D form. The star is where a group is joined. Cys(free,S-linked) = N[C@@H](CS*)C(=O)O; pGlu = O=C1CC[C@@H](C(=O)O)N1

How the values were obtained:
male Wistar rats [1] = assay: one-trial passive avoidance: improvement effect of experimental retrograde amnesia by cycloheximide; format: in vivo, rat; settings: 1 hr before electro-shock (0.5 mA), cycloheximide 2.7 to 3.0 mg/kg s.c. after shock, tested at 48 hours
Procedure: The effect of peptides of the invention on memory consolidation was evaluated by conducting one-trial passive avoidance experiments using male Wistar rats in accordance with the method described by Burbach et al., Science, vol. 221, pp. 1310-1312, 1983. The apparatus was composed of an illuminated room and a dark room, and their floors were made of a stainless-steel grid. The rats placed in the illuminated room could freely enter the dark room. Upon entering the dark room the rats received an electro-shock. Retention of passive avoidance behavior to the electro-shock was determined by the measurement of a response latent period, i.e. the period required for the rat which experienced the electro-shock to re-enter the dark room from the time at which the rat was placed in the illuminated room after predetermined intervals. The rats received an electro-shock (0.5 mA) one hr. after the administration of the peptides of the invention or a physiological saline solution. Immediately after receiving the electro-shock, the rats were treated with 2.7 to 3.0 mg/kg of cycloheximide or the saline solution by subcutaneous injection. At 48 hours after the administration was made, memory retention of the rats was tested. […] The average response latent period of rats administered with each peptide of the invention and treated with cycloheximide were compared with that of the control group. Six to eight rats were used for each group tested. The response latent period was measured up to a maximum of 600 seconds. The dose and the effect (the ratio of response latent period of each group to that of the control groups, shown as %) of the peptides obtained in each example and the peptides of each comparison example are set forth in Table 2.

male Wistar rats [2] = assay: one-trial passive avoidance: facilitation effect of memory consolidation; format: in vivo, rat; settings: for Effect (ratio of the response latent period of each group to that of the control groups): retention tested 24 hours later, latency max 600 seconds
Procedure: The effect of peptides of the invention on memory consolidation was evaluated by conducting one-trial passive avoidance experiments using male Wistar rats in accordance with the method described by Burbach et al., Science, vol. 221, pp. 1310-1312, 1983. The apparatus was composed of an illuminated room and a dark room, and their floors were made of a stainless-steel grid. The rats placed in the illuminated room could freely enter the dark room. Upon entering the dark room the rats received an electro-shock. Retention of passive avoidance behavior to the electro-shock was determined by the measurement of a response latent period, i.e. the period required for the rat which experienced the electro-shock to re-enter the dark room from the time at which the rat was placed in the illuminated room after predetermined intervals. The rats were treated with the peptides of the invention obtained in the aforementioned Example 1 to 4 or a physiological saline solution by means of a subcutaneous injection immediately after receiving the electro-shock (0.25 mA). Then 24 hours later, the retention of the memory of the electro-shock was tested. […] Comparison Compound 2 (known peptide): [drawing 14] For each group, 6 to 8 rats were tested. The response latent period was measured up to a maximum of 600 seconds. The dose and the effect (the ratio of the response latent period of each group to that of the control groups, shown as %) of the peptides obtained in each example and the peptides of each comparison compound are set forth in Table 1.

[3] = dose 1 ng/kg subcutaneous immediately after electro-shock (0.25 mA)

Structure (SMILES) | Effect (ratio of response latent period of each group to that of the control groups) (male Wistar rats [1]; dose 1 ng/kg) [%] | Effect (ratio of the response latent period of each group to that of the control groups) (male Wistar rats [2]; [3]) [%] | dose giving the same effect, as fraction of the dose of Comparison Compound 1 (male Wistar rats [2]; passive avoidance tests, versus Comparison Compound 1) | Effect (ratio of response latent period of each group to that of the control groups) (male Wistar rats [1]; dose 100 ng/kg) [%] | Effect (ratio of the response latent period of each group to that of the control groups) (male Wistar rats [2]; dose 10 ng/kg subcutaneous immediately after electro-shock (0.25 mA)) [%]
N=C(N)NCCC[C@H](NC(=O)[C@@H]1CCCN1C(=O)[C@H](CS)NC(=O)[C@H](CC(N)=O)NC(=O)[C@@H]1CCC(=O)N1)C(=O)NCC(N)=O [Example 2, pGlu-Asn-Cys-Pro-Arg-Gly--NH2 acetate] ([pGlu]NCPRG-NH2) | 633 | 295 |  |  | 
N=C(N)NCCC[C@H](NC(=O)[C@@H]1CCCN1C(=O)[C@H](CS)NC(=O)[C@@H](N)CC(N)=O)C(=O)O [Example 4, H-Asn-Cys-Pro-Arg-OH acetate] (H-NCPR-OH) | 320 | 316 |  |  | 
N=C(N)NCCC[C@@H](NC(=O)[C@@H]1CCCN1C(=O)[C@H](CSSC[C@H](N)C(=O)O)NC(=O)[C@H](CC(N)=O)NC(=O)[C@@H]1CCC(=O)N1)C(=O)NCC(N)=O [Example 1] ([pGlu]NC(Cys(free,S-linked))P[dR]G-NH2) | 302 | 267 | 1/10 |  | 
N=C(N)NCCC[C@H](NC(=O)[C@H]1CCCN1C(=O)[C@H](CSSC[C@H](N)C(=O)O)NC(=O)[C@H](CC(N)=O)NC(=O)[C@@H]1CCC(=O)N1)C(=O)NCC(N)=O [Example 3] ([pGlu]NC(Cys(free,S-linked))[dP]RG-NH2) | 380 | 253 |  |  | 
N=C(N)NCCC[C@H](NC(=O)[C@@H]1CCCN1C(=O)[C@H](CSSC[C@H](NC(=O)[C@H](CC(N)=O)NC(=O)[C@@H]1CCC(=O)N1)C(=O)N1CCC[C@H]1C(=O)N[C@@H](CCCNC(=N)N)C(=O)NCC(N)=O)NC(=O)[C@H](CC(N)=O)NC(=O)[C@@H]1CCC(=O)N1)C(=O)NCC(N)=O [Comparison 2, reference compound] (I: [pGlu]NCPRG-NH2 / II: [pGlu]NCPRG-NH2; disulfide I:3-II:3) |  |  |  | 503 | 249
